Laboratory results from patent US20090111778A1, “2-Keto-Oxazoles as Modulators of Fatty Acid Amide Hydrolase” (priority 2005, published 2009).
Like-named read-outs stand apart in the source and are kept apart here.

Columns and labels:
human FAAH = biological target: T1, human FAAH (Homo sapiens, UniProt O00519); experiment: Assay Method 1: FAAH assay, hydrolysis of 3H-anandamide by homogenate of SK-N-MC cells transfected with human FAAH; assay type: biochemical
T1 construct: expressed in transfected cells
T1 sequence (O00519 1-579): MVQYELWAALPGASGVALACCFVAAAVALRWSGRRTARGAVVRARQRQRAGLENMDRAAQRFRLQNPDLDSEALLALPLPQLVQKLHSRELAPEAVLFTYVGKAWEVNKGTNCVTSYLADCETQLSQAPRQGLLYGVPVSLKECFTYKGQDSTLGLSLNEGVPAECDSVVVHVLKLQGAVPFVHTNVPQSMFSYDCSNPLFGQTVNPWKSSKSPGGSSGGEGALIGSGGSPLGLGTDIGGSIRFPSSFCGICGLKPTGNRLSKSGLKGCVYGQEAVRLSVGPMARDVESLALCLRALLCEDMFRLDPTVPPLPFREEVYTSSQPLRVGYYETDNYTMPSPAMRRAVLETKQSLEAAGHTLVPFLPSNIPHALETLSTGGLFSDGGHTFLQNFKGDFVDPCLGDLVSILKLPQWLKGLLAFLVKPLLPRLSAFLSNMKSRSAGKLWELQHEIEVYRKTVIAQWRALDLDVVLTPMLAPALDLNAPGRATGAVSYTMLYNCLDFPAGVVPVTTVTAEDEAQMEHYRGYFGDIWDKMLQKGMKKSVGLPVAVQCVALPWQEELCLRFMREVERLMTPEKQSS
Method: A. Transfection of Cells with Human FAAH
(§1) A 10-cm tissue culture dish with a confluent monolayer of SK-N-MC cells was split 2 days (d) prior to transfection. Using sterile technique, the media was removed and the cells were detached from the dish by the addition of trypsin. One fifth of the cells were then placed onto a new 10-cm dish. Cells were grown in a 37° C. incubator with 5% CO2 in Minimal Essential Media Eagle with 10% Fetal Bovine Serum. After 2 d, cells were approximately 80% confluent. These cells were removed from the dish with trypsin and pelleted in a clinical centrifuge. The pellet was re-suspended in 400 μL complete media and transferred to an electroporation cuvette with a 0.4 cm gap between the electrodes. Supercoiled human FAAH cDNA (1 μg) was added to the cells and mixed. The voltage for the electroporation was set at 0.25 kV, and the capacitance was set at 960 μF. After electroporation, the cells were diluted into complete media (10 mL) and plated onto four 10-cm dishes. Because of the variability in the efficiency of electroporation, four different concentrations of cells were plated. The ratios used were 1:20, 1:10, and 1:5, with the remainder of the cells being added to the fourth dish. The cells were allowed to recover for 24 h before adding the selection media (complete media with 600 μg/mL G418). After 10 d, dishes were analyzed for surviving colonies of cells. Dishes with well-isolated colonies were used. Cells from individual colonies were isolated and tested.
The assay mixture consisted of […] of the cell homogenate, 10 μL of the test compound, and 40 μL of anandamide [1-^3H-ethanolamine] (3H-AEA, Perkin-Elmer, 10.3 Ci/mmol), which was added last, for a final tracer concentration of 80 nM. The reaction mixture was incubated at rt for 1 h. During the incubation, 96-well Multiscreen filter plates (catalog number MAFCNOB50; Millipore, Bedford, Mass., USA) were loaded with 25 μL of activated charcoal (Multiscreen column loader, catalog number MACL09625, Millipore) and washed once with 100 μL of MeOH. Also during the incubation, 96-well DYNEX MicroLite plates (catalog number NL510410) were loaded with 100 μL of MicroScint40 (catalog number 6013641, Packard Bioscience, Meriden, Conn., USA). After the 1 h incubation, 60 μL of the reaction mixture were transferred to the charcoal plates, which were then assembled on top of the DYNEX plates using Centrifuge Alignment Frames (catalog number MACF09604, Millipore). The unbound labeled ethanolamine was centrifuged through to the bottom plate (5 min at 2000 rpm), which was preloaded with the scintillant, as described above. The plates were sealed and left at rt for 1 h before counting on a Hewlett Packard TopCount.

rat FAAH = biological target: T2, rat FAAH (Rattus norvegicus, UniProt P97612); experiment: Assay Method 2: FAAH assay, hydrolysis of 3H-anandamide by homogenate of SK-N-MC cells transfected with rat FAAH; assay type: biochemical; settings: T84 or transfected SK-N-MC cell homogenate, 3H-AEA tracer 80 nM, rt 1 h, pH 9
T2 construct: expressed in transfected cells
T2 sequence (P97612 1-579): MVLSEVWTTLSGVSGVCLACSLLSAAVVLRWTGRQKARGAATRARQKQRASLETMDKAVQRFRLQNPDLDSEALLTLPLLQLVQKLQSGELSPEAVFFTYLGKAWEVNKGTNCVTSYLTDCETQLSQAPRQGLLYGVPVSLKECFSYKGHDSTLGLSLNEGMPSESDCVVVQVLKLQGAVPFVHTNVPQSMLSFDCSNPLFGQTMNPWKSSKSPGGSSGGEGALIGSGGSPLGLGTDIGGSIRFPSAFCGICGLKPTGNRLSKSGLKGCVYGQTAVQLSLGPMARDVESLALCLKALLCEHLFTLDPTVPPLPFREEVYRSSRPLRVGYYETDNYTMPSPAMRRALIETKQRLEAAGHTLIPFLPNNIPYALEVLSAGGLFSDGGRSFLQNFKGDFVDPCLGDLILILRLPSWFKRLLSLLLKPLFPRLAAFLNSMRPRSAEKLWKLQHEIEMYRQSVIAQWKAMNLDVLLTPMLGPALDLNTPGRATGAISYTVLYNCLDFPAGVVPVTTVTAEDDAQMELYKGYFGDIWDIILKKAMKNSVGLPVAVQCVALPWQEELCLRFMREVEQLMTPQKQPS
Method: as §1, with “A. Transfection of Cells with Rat FAAH A 10-cm” for “A 10-cm”, “electrodes. Supercoiled rat FAAH cDNA” for “electrodes. Supercoiled human FAAH cDNA”, “and tested. […] B. FAAH Assay […] The reaction mixture was incubated at rt for 1 h. During the incubation, 96-well Multiscreen filter plates (catalog number MAFCNOB50; Millipore, Bedford, Mass., USA) were loaded with 25 μL of activated charcoal (Multiscreen column loader, catalog number MACL09625, Millipore) and washed once with 100 μL of MeOH. Also during the incubation, 96-well DYNEX MicroLite plates (catalog number NL510410) were loaded with 100 μL of MicroScint40 (catalog number 6013641, Packard Bioscience, Meriden, Conn., USA). After the 1 h incubation, 60 μL of the reaction mixture were transferred to the charcoal plates, which were then assembled on top of the DYNEX plates using Centrifuge Alignment Frames (catalog number MACF09604, Millipore). The unbound labeled ethanolamine was centrifuged through to the bottom plate (5 min at 2000 rpm), which was preloaded with the scintillant, as described above. The plates were sealed and left at rt for 1 h before counting on a Hewlett Packard TopCount.” for “and tested.”

[1] = human FAAH, T84 or transfected SK-N-MC cell homogenate, 3H-AEA tracer 80 nM, rt 1 h, pH 9, read-out: Assay 1 IC50

Compound: O=C(CCCC1CCN(Cc2ccc3c(c2)OCO3)CC1)c1ncco1 [Example 14, 4-(1-Benzo[1,3]dioxol-5-ylmethyl-Piperidin-4-yl)-1-oxazol-2-yl-butan-1-one]
- IC50 (human FAAH; [1]): 86 nM
- IC50 (rat FAAH): 1000 nM

Compound: O=C(CCCC1CCN(Cc2ccc(Oc3ccccc3)cc2)CC1)c1ncco1 [Example 15, 1-Oxazol-2-yl-4-[1-(4-phenoxy-benzyl)-piperidin-4-yl]-butan-1-one]
- IC50 (human FAAH; [1]): 4 nM
- IC50 (rat FAAH): 2.4 nM

Compound: COc1ccc(CN2CCC(CCCC(=O)c3ncco3)CC2)cc1 [Example 16, 4-[1-(4-Methoxy-benzyl)-piperidin-4-yl]-1-oxazol-2-yl-butan-1-one]
- IC50 (human FAAH): 132 nM
- IC50 (rat FAAH): 663 nM

Compound: COc1cccc(CN2CCC(CCCC(=O)c3ncco3)CC2)c1 [Example 17, 4-[1-(3-Methoxy-benzyl)-piperidin-4-yl]-1-oxazol-2-yl-butan-1-one]
- IC50 (human FAAH; [1]): 36 nM
- IC50 (rat FAAH): 308 nM

Compound: Cc1ccc(CN2CCC(CCCC(=O)c3ncco3)CC2)cc1 [Example 18, 4-[1-(4-Methyl-benzyl)-piperidin-4-yl]-1-oxazol-2-yl-butan-1-one]
- IC50 (human FAAH; [1]): 400 nM
- IC50 (rat FAAH): 1000 nM

Compound: Cc1cccc(CN2CCC(CCCC(=O)c3ncco3)CC2)c1 [Example 19, 4-[1-(3-Methyl-benzyl)-piperidin-4-yl]-1-oxazol-2-yl-butan-1-one]
- IC50 (human FAAH; [1]): 90 nM
- IC50 (rat FAAH): 305 nM

Compound: O=C(CCCC1CCN(Cc2ccc3ccccc3c2)CC1)c1ncco1 [Example 20, 4-(1-Naphthalen-2-ylmethyl-piperidin-4-yl)-1-oxazol-2-yl-butan-1-one]
- IC50 (human FAAH; [1]): 8 nM
- IC50 (rat FAAH): 9 nM

Compound: O=C(CCCC1CCN(Cc2cnc3ccccc3c2)CC1)c1ncco1 [Example 21, 1-Oxazol-2-yl-4-(1-quinolin-3-ylmethyl-piperidin-4-yl)-butan-1-one]
- IC50 (human FAAH; [1]): 29 nM
- IC50 (rat FAAH): 86 nM

Compound: CC(C)c1ccc(CN2CCC(CCCC(=O)c3ncco3)CC2)cc1 [Example 22, 4-[1-(4-Isopropyl-benzyl)-piperidin-4-yl]-1-oxazol-2-yl-butan-1-one]
- IC50 (human FAAH; [1]): 3 nM
- IC50 (rat FAAH): 5 nM

Compound: CC(C)Oc1ccc(CN2CCC(CCCC(=O)c3ncco3)CC2)cc1 [Example 23, 4-[1-(4-isopropoxy-benzyl)-piperidin-4-yl]-1-oxazol-2-yl-butan-1-one]
- IC50 (human FAAH; [1]): 14 nM
- IC50 (rat FAAH): 31 nM

Compound: CC(C)(C)Oc1ccc(CN2CCC(CCCC(=O)c3ncco3)CC2)cc1 [Example 24, 4-[1-(4-tert-Butoxy-benzyl)-piperidin-4-yl]-1-oxazol-2-yl-butan-1-one]
- IC50 (human FAAH; [1]): 32 nM
- IC50 (rat FAAH): 18 nM

Compound: CC(C)(C)CC(=O)N1CCC(CCCC(=O)c2ncco2)CC1 [Example 25, 3,3-Dimethyl-1-[4-(4-oxazol-2-yl-4-oxo-butyl)-piperidin-1-yl]-butan-1-one]
- IC50 (human FAAH; [1]): 90 nM
- IC50 (rat FAAH): 320 nM

Compound: CC(C)CC(=O)N1CCC(CCCC(=O)c2ncco2)CC1 [Example 26, 3-Methyl-1-[4-(4-oxazol-2-yl-4-oxo-butyl)-piperidin-1-yl]-butan-1-one]
- IC50 (human FAAH; [1]): 400 nM
- IC50 (rat FAAH): 900 nM

Compound: O=C(CCCC1CCN(C(=O)Cc2ccccc2)CC1)c1ncco1 [Example 27, 1-Oxazol-2-yl-4-(1-phenylacetyl-piperidin-4-yl)-butan-1-one]
- IC50 (human FAAH; [1]): 500 nM
- IC50 (rat FAAH): 1300 nM

Compound: O=C(CCCC1CCN(C(=O)c2ccccc2)CC1)c1ncco1 [Example 28, 4-(1-Benzoyl-piperidin-4-yl)-1-oxazol-2-yl-butan-1-one]
- IC50 (human FAAH; [1]): 67 nM
- IC50 (rat FAAH): 563 nM

Compound: O=C(CCCC1CCN(C(=O)C2CCCCC2)CC1)c1ncco1 [Example 29, 4-(1-Cyclohexanecarbonyl-piperidin-4-yl)-1-oxazol-2-yl-butan-1-one]
- IC50 (human FAAH; [1]): 45 nM
- IC50 (rat FAAH): 180 nM

Compound: CC(C)C(=O)N1CCC(CCCC(=O)c2ncco2)CC1 [Example 30, 4-(1-Isobutyryl-piperidin-4-yl)-1-oxazol-2-yl-butan-1-one]
- IC50 (human FAAH; [1]): 250 nM
- IC50 (rat FAAH): 2250 nM

Compound: O=C(CCCC1CCN(C(=O)C2CCCC2)CC1)c1ncco1 [Example 31, 4-(1-Cyclopentanecarbonyl-piperidin-4-yl)-1-oxazol-2-yl-butan-1-one]
- IC50 (human FAAH; [1]): 106 nM
- IC50 (rat FAAH): 288 nM

Compound: O=C(CCCC1CCN(C(=O)CCC2CCCC2)CC1)c1ncco1 [Example 32, 4-[1-(3-Cyclopentyl-propionyl)-piperidin-4-yl]-1-oxazol-2-yl-butan-1-one]
- IC50 (human FAAH; [1]): 28 nM
- IC50 (rat FAAH): 112 nM

Compound: O=C(CCCC1CCN(C(=O)COc2ccccc2)CC1)c1ncco1 [Example 33, 1-Oxazol-2-yl-4-[1-(2-phenoxy-acetyl)-piperidin-4-yl]-butan-1-one]
- IC50 (human FAAH; [1]): 848 nM
- IC50 (rat FAAH): 889 nM

Compound: O=C(CCCC1CCN(C(=O)COCc2ccccc2)CC1)c1ncco1 [Example 34, 4-[1-(2-Benzyloxy-acetyl)-piperidin-4-yl]-1-oxazol-2-yl-butan-1-one]
- IC50 (human FAAH; [1]): 240 nM
- IC50 (rat FAAH): 250 nM
